Source: US8017612B2, “Piperazine compound and use thereof as a HCV polymerase inhibitor” (priority 2006, dated 2011)

Key:
[1] = target: T1, HCV polymerase (NS5B) type 1b (Hepatitis C virus genotype 1b, UniProt P26663); experiment: Assay of enzyme (HCV polymerase) inhibitory activity, type 1b enzyme; type: biochemical, HCV BK strain (type 1b)
T1 construct: a region encoding NS5B (J Virol 1991 March, 65(3), 1105-13, 544 amino acids after deletion of 47 amino acids on the C-terminal); 6xHis (C); made in house; host or cells: Escherichia coli
Summary of the method: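 His-tagged, C-terminally truncated NS5B (BK strain, 1b; 0.5 μg/ml) incubated with compound 60 min at 25 °C on 3′UTR-derived substrate RNA (5 μg/ml), 50 μM ATP/GTP/CTP, 2 μM UTP plus [3H]UTP, pH 7.5. Acid-precipitated RNA counted; IC50 from radioactivity with and without compound.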

[2] = target: T2, HCV polymerase (NS5B) type 1a (Hepatitis C virus genotype 1a, UniProt P26664); experiment: Assay of enzyme (HCV polymerase) inhibitory activity, type 1a enzyme; type: biochemical, HCV type 1a (cloned from the blood of patients)
T2 construct: made in house; host or cells: Escherichia coli (by the 'similar method' of the 1b enzyme)
Summary of the method: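 His-tagged NS5B, C-terminal 47 residues deleted, type 1a at 1.5 μg/ml, with 5 μg/ml HCV 3′UTR substrate RNA, 50 μM ATP/GTP/CTP, 2 μM UTP plus [3H]UTP, pH 7.5 Tris, 5 mM MgCl2; 60 min at 25° C. TCA-precipitated RNA counted by scintillation; IC50 from radioactivity with vs. without compound.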

[3] = HCV polymerase inhibitory activity (IC50), 1b, type 1b enzyme 0.5 μg/ml, 25° C., 60 min
[4] = HCV polymerase inhibitory activity (IC50), 1a, type 1a enzyme 1.5 μg/ml, 25° C., 60 min
[5] = HCV polymerase inhibitory activity IC50, 1b, type 1b enzyme
[6] = HCV polymerase inhibitory activity IC50, 1a, type 1a enzyme

SMILES | IC50 [1, 3] [µM] | IC50 [2, 4] [µM] | IC50 [1, 5] [µM] | IC50 [2, 6] [µM]
COC(=O)Cc1csc(N2CCN(S(=O)(=O)c3ccc(C(F)(F)F)cc3)[C@@H](C(=O)NCc3ccc(C(C)C)cc3)C2)n1 [Example 255, {2-[(R)-3-(4-isopropyl-benzylcarbamoyl)-4-(4-trifluoromethyl-benzenesulfonyl)-piperazin-1-yl]-thiazol-4-yl}-acetic acid methyl ester] | < 0.1 | < 0.1 |  | 
CCCc1ccc(CNC(=O)[C@H]2CN(c3nc4c(s3)CN(C)CC4)CCN2S(=O)(=O)c2ccc(OC(F)(F)F)cc2)cc1 [Example 548, (R)-4-(5-methyl-4,5,6,7-tetrahydro-thiazolo[5,4-c]pyridin-2-yl)-1-(4-trifluoromethoxy-benzenesulfonyl)-piperazine-2-carboxylic acid 4-propyl-benzylamide] | < 0.1 | < 0.1 |  | 
CC(C)c1ccc(CNC(=O)[C@H]2CN(c3nc(C(=O)O)cs3)CCN2S(=O)(=O)c2ccc(C(F)(F)F)cc2)cc1 [Example 244, 2-[(R)-3-(4-isopropyl-benzylcarbamoyl)-4-(4-trifluoromethyl-benzenesulfonyl)-piperazin-1-yl]-thiazole-4-carboxylic acid] | 0.1 to 1 | 0.1 to 1 |  | 
Cc1nc(N2CCN(S(=O)(=O)c3ccc(OC(F)(F)F)cc3)[C@@H](C(=O)NCc3ccc(C(C)C)cc3)C2)sc1C(=O)OC(C)(C)C [Example 320, 2-[(R)-3-(4-isopropyl-benzylcarbamoyl)-4-(4-trifluoromethoxy-benzenesulfonyl)-piperazin-1-yl]-4-methyl-thiazole-5-carboxylic acid tert-butyl ester] | > 1 | > 1 |  | 
CCCc1ccc(CNC(=O)[C@H]2CN(c3nc4c(C(=O)O)n[nH]c(=O)c4s3)CCN2S(=O)(=O)c2ccc(CC)cc2)cc1 [Example 863, 2-[(R)-4-(4-ethyl-benzenesulfonyl)-3-(4-propyl-benzylcarbamoyl)-piperazin-1-yl]-7-oxo-6,7-dihydro-thiazolo[4,5-d]pyridazine-4-carboxylic acid] |  |  | < 0.1 | < 0.1
O=C(NCc1ccc(OC(F)(F)F)cc1)[C@H]1CN(c2nn3c(CO)cc(=O)nc3s2)CCN1S(=O)(=O)c1ccc(OC(F)(F)F)cc1 [Example 1105] |  |  | < 0.1 | 0.1 to 1
O=C(NCc1ccc(OC(F)(F)F)cc1)[C@H]1CN(c2nc3ncncc3s2)CCN1S(=O)(=O)c1ccc(C(F)(F)F)cc1 [Example 886, (R)-4-thiazolo[4,5-d]pyrimidin-2-yl-1-(4-trifluoromethyl-benzenesulfonyl)-piperazine-2-carboxylic acid 4-trifluoromethoxy-benzylamide] |  |  | < 0.1 | < 0.1
O=C(NCc1ccc(Cl)cc1)[C@H]1CN(c2cnc3cncnc3n2)CCN1S(=O)(=O)c1ccc(OC(F)(F)F)cc1 [Example 629, (R)-4-pteridin-7-yl-1-(4-trifluoromethoxy-benzenesulfonyl)-piperazine-2-carboxylic acid 4-chloro-benzylamide] | < 0.1 | 0.1 to 1 |  | 
CCC(F)(F)c1ccc(CNC(=O)[C@H]2CN(c3cnc(CN)c(N)n3)CCN2S(=O)(=O)c2ccc(OC(F)(F)F)cc2)cc1 [Example 638, (R)-6′-amino-5′-aminomethyl-4-(4-trifluoromethoxy-benzenesulfonyl)-3,4,5,6-tetrahydro-2H-[1,2′]bipyrazinyl-3-carboxylic acid 4-(1,1-difluoro-propyl)-benzylamide] | < 0.1 | < 0.1 |  | 
O=C(NCc1ccc(OC(F)(F)F)cc1)[C@H]1CN(c2nc3ncncc3s2)CCN1S(=O)(=O)c1ccc(OC(F)F)cc1 [Example 919, (R)-1-(4-difluoromethoxy-benzenesulfonyl)-4-thiazolo[4,5-d]pyrimidin-2-yl-piperazine-2-carboxylic acid 4-trifluoromethoxy-benzylamide] |  |  | < 0.1 | < 0.1
CN(C)c1ncc2sc(N3CCN(S(=O)(=O)c4ccc(OC(F)(F)F)cc4)[C@@H](C(=O)NCc4ccc(OC(F)(F)F)cc4)C3)nc2n1 [Example 945, (R)-4-(5-dimethylamino-thiazolo[4,5-d]pyrimidin-2-yl)-1-(4-trifluoromethoxy-benzenesulfonyl)-piperazine-2-carboxylic acid 4-trifluoromethoxy-benzylamide] |  |  | < 0.1 | < 0.1
O=C(NCc1ccc(OC(F)(F)F)cc1)[C@H]1CN(c2nc3c(CO)n[nH]c(=O)c3s2)CCN1S(=O)(=O)c1ccc(OC(F)(F)F)cc1 [Example 870, (R)-4-(4-hydroxymethyl-7-oxo-6,7-dihydro-thiazolo[4,5-d]pyridazin-2-yl)-1-(4-trifluoromethoxy-benzenesulfonyl)-piperazine-2-carboxylic acid 4-trifluoromethoxy-benzylamide] |  |  | < 0.1 | < 0.1
CCC(F)(F)c1ccc(CNC(=O)[C@H]2CN(C(=O)Nc3nc(C(C)(C)O)cs3)CCN2S(=O)(=O)c2ccc(OC(F)(F)F)cc2)cc1 [Example 612, (R)-4-(4-trifluoromethoxy-benzenesulfonyl)-piperazine-1,3-dicarboxylic acid 3-[4-(1,1-difluoro-propyl)-benzylamide] 1-{[4-(1-hydroxy-1-methyl-ethyl)-thiazol-2-yl]-amide}] | 0.1 to 1 | > 1 |  | 
CC(=O)N1CCN(S(=O)(=O)c2ccc(C(C)C)cc2)[C@@H](C(=O)NCc2ccc(C(C)(C)C)cc2)C1 [Example 253, (R)-4-acetyl-1-(4-isopropyl-benzenesulfonyl)-piperazine-2-carboxylic acid 4-tert-butyl-benzylamide] | < 0.1 | < 0.1 |  | 
CC(C)c1ccc(CNC(=O)[C@H]2CN(C(=O)Cn3cnnn3)CCN2S(=O)(=O)c2ccc(C(F)(F)F)cc2)cc1 [Example 257, (R)-4-(2-tetrazol-1-yl-acetyl)-1-(4-trifluoromethyl-benzenesulfonyl)-piperazine-2-carboxylic acid 4-isopropyl-benzylamide] | < 0.1 | < 0.1 |  | 
CCC(F)(F)c1ccc(CNC(=O)[C@H]2CN(c3cnc4c(Cl)cccc4n3)CCN2S(=O)(=O)c2ccc(OC(F)(F)F)cc2)cc1 [Example 741, (R)-4-(5-chloro-quinoxalin-2-yl)-1-(4-trifluoromethoxy-benzenesulfonyl)-piperazine-2-carboxylic acid 4-(1,1-difluoro-propyl)-benzylamide] |  |  | < 0.1 | 0.1 to 1
O=C(NCc1ccc(OC(F)(F)F)cc1)[C@H]1CN(c2nc3nnncc3s2)CCN1S(=O)(=O)c1ccc(OC(F)(F)F)cc1 [Example 987, (R)-4-thiazolo[4,5-d][1,2,3]triazin-6-yl-1-(4-trifluoromethoxy-benzenesulfonyl)-piperazine-2-carboxylic acid 4-trifluoromethoxy-benzylamide] |  |  | < 0.1 | < 0.1
CCCc1ccc(CNC(=O)[C@H]2CN(c3nc(CO)cs3)CCN2S(=O)(=O)c2ccc(OC(F)(F)F)cc2)cc1 [Example 510, (R)-4-(4-hydroxymethyl-thiazol-2-yl)-1-(4-trifluoromethoxy-benzenesulfonyl)-piperazine-2-carboxylic acid 4-propyl-benzylamide] | < 0.1 | < 0.1 |  | 
CC(=O)N1CCN(S(=O)(=O)c2ccc(C(C)C)cc2)[C@@H](C(=O)NCc2ccc(C(C)(C)C(=O)N(C)C)cc2)C1 [Example 233, (R)-4-acetyl-1-(4-isopropyl-benzenesulfonyl)-piperazine-2-carboxylic acid 4-(1-dimethylcarbamoyl-1-methyl-ethyl)-benzylamide] | > 1 | > 1 |  | 
CC(C)c1cc(=O)nc2sc(N3CCN(S(=O)(=O)c4ccc(OC(F)(F)F)cc4)[C@@H](C(=O)NCc4ccc(OC(F)(F)F)cc4)C3)nn12 [Example 1088, (R)-4-(5-isopropyl-7-oxo-7H-[1,3,4]thiadiazolo[3,2-a]pyrimidin-2-yl)-1-(4-trifluoromethoxy-benzenesulfonyl)-piperazine-2-carboxylic acid 4-trifluoromethoxy-benzylamide] |  |  | < 0.1 | < 0.1
O=C(NCc1ccc(OC(F)(F)F)cc1)[C@H]1CN(c2nc3ncncc3s2)CCN1S(=O)(=O)c1ccc(OC(F)(F)F)cc1 [Example 801, (R)-4-thiazolo[4,5-d]pyrimidin-2-yl-1-(4-trifluoromethoxy-benzenesulfonyl)-piperazine-2-carboxylic acid 4-trifluoromethoxy-benzylamide] |  |  | < 0.1 | < 0.1
COC(=O)c1cnc(N2CCN(S(=O)(=O)c3ccc(C(F)(F)F)cc3)[C@@H](C(=O)NCc3ccc(C(C)C)cc3)C2)cn1 [Example 8, (R)-3-(4-isopropyl-benzylcarbamoyl)-4-(4-trifluoromethyl-benzenesulfonyl)-3,4,5,6-tetrahydro-2H-[1,2′]bipyrazinyl-5′-carboxylic acid methyl ester] | < 0.1 | < 0.1 |  | 
CCCn1ccc(CNC(=O)[C@H]2CN(C(C)=O)CCN2S(=O)(=O)c2ccc(OC(F)(F)F)cc2)cc1=O [Example 634, (R)-4-acetyl-1-(4-trifluoromethoxy-benzenesulfonyl)-piperazine-2-carboxylic acid (2-oxo-1-propyl-1,2-dihydro-pyridin-4-ylmethyl)-amide] | > 1 | 0.1 to 1 |  | 
